The record followed here is patent publication US20250092014A1, “COMPOUNDS AND METHODS OF ACTIVATING LIPOPROTEIN LIPASE” (Metrea Biosciences, Inc., priority 2021, published 2025).

Assay [1] deals with T1, LPL (native bovine milk protein) inactivated by ANGPTL4 (Bos taurus, UniProt P11151).
T1 construct: from tissue; host or cells: bovine milk (LPL); E. coli (GST-ANGPTL4)
T1 sequence (P11151 29-478): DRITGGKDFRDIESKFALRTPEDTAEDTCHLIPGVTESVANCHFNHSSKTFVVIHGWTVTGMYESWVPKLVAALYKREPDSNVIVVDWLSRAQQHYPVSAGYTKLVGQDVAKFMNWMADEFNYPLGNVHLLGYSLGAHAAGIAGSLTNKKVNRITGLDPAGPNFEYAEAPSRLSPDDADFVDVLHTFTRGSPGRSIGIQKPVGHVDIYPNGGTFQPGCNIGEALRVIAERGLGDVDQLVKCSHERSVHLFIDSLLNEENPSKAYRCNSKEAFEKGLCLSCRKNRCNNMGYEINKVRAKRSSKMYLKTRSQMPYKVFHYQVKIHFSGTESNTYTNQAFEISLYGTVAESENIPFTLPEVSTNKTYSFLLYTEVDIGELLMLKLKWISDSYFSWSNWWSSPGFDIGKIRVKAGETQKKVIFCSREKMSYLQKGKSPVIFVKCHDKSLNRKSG
As to the kind of experiment: LPL ANGPTL4 protection assay (LPL fluorescence assay, resorufin butyrate substrate). It is filed as biochemical. The settings on record: LPL activation activity, LPL 2.5 nM, ANGPTL4 20 nM. The protocol:
LPL is inactivated by angiopoietin-like 4 (ANGPTL4). Compounds of the present disclosure were for activity using the following protection assay. Briefly, the assay was performed in a black opaque 96-well microtiter plate with final volume of 100 μL using a buffer consisting of 50 mM HEPES (pH 7.2), 150 mM NaCl and 0.03% Triton X-100. Compounds were prepared as 10 mM stocks in DMSO, with subsequent serial dilutions performed in DMSO. Two microliters of test compounds were added to the microtiter plate, followed by 49-PL of LPL (native bovine milk protein affinity purified using heparin-affinity chromatography) in assay buffer. The plate contents were mixed using an orbital shaker and allowed to incubate for 5 minutes at room temperature. The enzymatic assay was initiated by the addition of a mixture of 49 μL of 50 μM resorufin butyrate (Santa Cruz #sc-208302; prepared from a 10 mM DMSO stock) and ANGPTL4 (N-terminal GST construct consisting of residues 26-164 expressed in E. coli) in assay buffer. The final concentrations of LPL and ANGPTL4 were 2.5 nM and 20 nM, respectively. The assay was allowed to proceed at 30° C. for 25 minutes with kinetic monitoring (Ex560/Em585) followed by an endpoint reading which was used for analysis.
Data was analyzed in Graphpad Prism (version 6.0, GraphPad Software, Inc., San Diego, CA) using a variable slope four parameter fit of the equation:
Y=Bottom+(Top-Bottom)/(1+10^((Log EC50−X)*HillSlope)),
where X is the concentration of test compound, Y corresponds to the amount of product expressed in relative fluorescence units, and Top and Bottom refer to the plateaus of the curve. Percent activation (protection) of test compound was calculated relative to zero effect wells (ZEW; LPL, ANGPTL4 and substrate) and maximum effect wells (MEW; LPL plus substrate): ((test well−ZEW)/(MEW−ZEW))*100.

In the next assay the test system is C57BL/6 mice. As to the kind of experiment: Oral fat tolerance test (postprandial triglyceridaemia after olive oil bolus). The settings on record: overnight-fasted C57BL/6 mice, compound IP 1 h before 10 mL/kg olive oil, bled at 1, 2 and 3.5 h. It is filed as in vivo. The protocol: To examine to effects of test compounds on postprandial triglycerdemia, 5-7 week old C57BL/6 mice were fasted overnight (18 hours) on non-nutritive bedding (Alpha-Dri). Following the overnight fast, the mice are bled via retro-orbital sinus (25 μL) using microcapillaries (t-1 hr sample). The LPL activator test compound was then administered intraperitoneally (IP) in a dose volume of 10 ml/kg. One hour later the mice were bled for the t=0 timepoint. The mice were then immediately dosed with a 10 mL/kg oral bolus of olive oil. The mice were subsequently bled at 1-, 2-, and 3.5-hours post-olive oil administration.
Whole blood samples were collected into tubes containing 0.125% EDTA solution in saline. Diluted plasma samples were analyzed for triglyceride levels using Infinity Triglyceride reagent (Thermo) on a microtiter plate. Briefly, 10 μL of diluted sample was added the plate. 200 μL of the reagent was added and the plate was incubated for 10 minutes at 37° C. The plate was then read at 550 nm on a Molecular Devices M5 Spectrophotometer (San Jose, CA). The concentration of triglycerides in the sample was determined using a standard curve made using a dilution of triglyceride standard (Sigma-Aldrich, St. Louis, MO) using the Softmax software from Molecular Devices. All graphing and subsequent area under-the-curve and statistical analysis (Student's t Test) is performed using GraphPad Prism (version 8.0, GraphPad Software, Inc., San Diego, CA).

Another assay concerns the target T2, LPL:sGPIHBPI complex (Homo sapiens, UniProt P06858).
T2 sequence (P06858 28-475): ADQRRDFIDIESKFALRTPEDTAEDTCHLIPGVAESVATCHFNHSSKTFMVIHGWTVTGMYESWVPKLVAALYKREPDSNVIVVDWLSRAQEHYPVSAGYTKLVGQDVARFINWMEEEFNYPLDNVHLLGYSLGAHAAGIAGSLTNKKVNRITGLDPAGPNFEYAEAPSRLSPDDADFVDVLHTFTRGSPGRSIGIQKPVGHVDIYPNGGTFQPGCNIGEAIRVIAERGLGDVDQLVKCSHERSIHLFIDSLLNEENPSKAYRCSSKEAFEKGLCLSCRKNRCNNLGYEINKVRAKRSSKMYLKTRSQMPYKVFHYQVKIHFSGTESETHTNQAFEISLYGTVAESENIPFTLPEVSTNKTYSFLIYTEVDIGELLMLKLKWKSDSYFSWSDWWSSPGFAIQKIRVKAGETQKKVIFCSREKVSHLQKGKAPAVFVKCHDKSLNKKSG
T2 sequence (Q8IV16 21-151 partner limits assumed): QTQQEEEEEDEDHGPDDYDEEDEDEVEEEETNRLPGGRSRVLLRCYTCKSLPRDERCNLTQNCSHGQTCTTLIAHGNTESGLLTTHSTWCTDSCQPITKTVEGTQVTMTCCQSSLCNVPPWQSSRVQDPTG
As to the kind of experiment: VLDL assay (LPL:sGPIHBP1 pre-incubated with ANGPTL4, VLDL substrate, Amplex Red readout). It is filed as biochemical. The settings on record: read-out: VLDL qAC50. The protocol:
The assay was performed in black I536-well plates using purified proteins. To identify compounds that stimulate LPL activity either by directly activating LPL or by inhibiting the antagonist ANGPTL4, the LPL:sGPIHBPI complex was pre-incubated with ANGPTL4 to decrease LPL activity by 80%. After a 60 min pre-incubation, the coupled enzyme system supplemented with Amplex Red reagent was added. The enzymatic reaction was started by adding the VLDL substrate. 120 min after VLDL addition, the reaction was stopped using SDS and the fluorescence intensity was measured.
40 or 45 nl of compound solution in 100% DMSO were placed in test plate. Then LPL:sGPIHBPI was added to all wells (diluted in assay buffer to 80 nM; 1 μl/well). This was followed by an addition of ANGPTL4 to compounds and neutral controls (diluted in assay buffer to 84 nM; 1 μl/well). The assay buffer was added to stimulator control (1 μl/well). Then the plates were centrifuged and pre-incubated 60 min at RT. A NEFA (1:2 diluted in PBS) supplemented with Amplex Red (40 μM was further added to all wells (1 μl/well). The reaction was then started by adding substrate to all wells (diluted in VLDL buffer to 16 Vg/ml, 1 μl/well). The plates were further centrifuged (800 rpm for 1 my) and incubated 120 m at RT (=reaction time). The reaction was then by adding SDS to all wells (diluted in water to 2.5%, 2 μl/well) and further incubated 30 mi at RT. The fluorescence intensity (ex 540 nm/em 590 nm) was measured on a Pherastar (BMG) using 20 flashes.

In assay [1], `Cc1ccc(NC(=O)c2cc(N3Cc4cc(-c5nnn[nH]5)ccc4C3=O)ccc2N2CCCCC2)cc1` [Compound 170, 5-(1-oxo-5-(1H-tetrazol-5-yl)isoindolin-2-yl)-2-(piperidin-1-yl)-N-(p-tolyl)benzamide] returned an EC50 of 7.98 µM. Also, the “hypertriglyceridemia response to oral olive oil gavage (plasma triglycerides)” value (from here on “hypertriglyceridemia response”) with C57BL/6 mice is recorded as “blunts hypertriglyceridemia response in a dose-dependent fashion”.

As for `CCn1nc(C(=O)Nc2cc(C(=O)Nc3ccccc3CC(=O)NS(C)(=O)=O)ccc2N2CCCCC2)c2ccccc21` [Compound 172, 1-ethyl-N-(5-((2-(2-(methylsulfonamido)-2-oxoethyl)phenyl)carbamoyl)-2-(piperidin-1-yl)phenyl)-1H-indazole-3-carboxamide], in assay [1], the EC50 was found to be 7.5 µM. For the same compound, the “hypertriglyceridemia response” value in the assay with C57BL/6 mice is “blunts hypertriglyceridemia response in a dose-dependent fashion”.

On to `Cn1c(C(=O)Nc2cc(C(=O)Nc3ccccc3CC(=O)O)ccc2N2CCCCC2)cc2ccccc21` [Compound 173, 2-(2-(3-(1-methyl-1H-indole-2-carboxamido)-4-(piperidin-1-yl)benzamido)phenyl)acetic acid], for which, in assay [1], the EC50 came to 5.85 µM. The “hypertriglyceridemia response” value in the assay with C57BL/6 mice is “blunts hypertriglyceridemia response in a dose-dependent fashion”.

`Cn1nc(C(=O)Nc2cc(C(=O)Nc3ccccc3CC(=O)O)ccc2N2CCCCC2)c2ccccc21` [Compound 174, 2-(2-(3-(1-methyl-1H-indazole-3-carboxamido)-4-(piperidin-1-yl)benzamido)phenyl)acetic acid] showed an EC50 in assay [1] of 3.99 µM. Besides, the “hypertriglyceridemia response” value in the assay on C57BL/6 mice is listed as “blunts hypertriglyceridemia response in a dose-dependent fashion”.

In assay [1], `Cc1ccc(NC(=O)c2cc(NCc3ccc(-c4nnn[nH]4)cc3)ccc2N2CCCCC2)cc1` [Compound 175, 5-((4-(1H-tetrazol-5-yl)benzyl)amino)-2-(piperidin-1-yl)-N-(p-tolyl)benzamide] yielded an EC50 of 13.4 µM. In addition, the “hypertriglyceridemia response” value in the assay on C57BL/6 mice was “blunts hypertriglyceridemia response in a dose-dependent fashion”.

In turn, `Cc1ccc(NC(=O)c2cc(NC(=O)c3ccccc3C(=O)O)ccc2NC2CCCC2)cc1Cl` [Compound 176, 2-((3-((3-chloro-4-methylphenyl)carbamoyl)-4-(cyclopentylamino)phenyl)carbamoyl)benzoic acid] showed an EC50 in assay [1] of 5.74 µM. The “hypertriglyceridemia response” value in the assay with C57BL/6 mice was “blunts hypertriglyceridemia response in a dose-dependent fashion”.

As to `O=C(O)Cc1cc(F)ccc1NC(=O)c1ccc(N2CCCOCC2)c(NC(=O)c2nn(CC(F)(F)F)c3ccccc23)c1` [Example 63], at LPL:sGPIHBPI complex, the EC50 was found to be 10 µM.

Consider `CC1CCN(c2ccc(C(=O)Nc3ccc(F)cc3CC(=O)O)cc2NC(=O)c2nn(CC(F)(F)F)c3ccccc23)CC1` [Example 64], for which, on LPL:sGPIHBPI complex, the EC50 is 1.2 µM.

Regarding `CC1CCCCN1c1ccc(C(=O)Nc2ccc(F)cc2CC(=O)O)cc1NC(=O)c1nn(CC(F)(F)F)c2ccccc12` (centres unmarked) [Example 67], the EC50 on LPL:sGPIHBPI complex is 2.5 µM.

As for `CCC1CCCCN1c1ccc(C(=O)Nc2ccc(F)cc2CC(=O)O)cc1NC(=O)c1nn(CC(F)(F)F)c2ccccc12` (centres unmarked) [Example 72], the EC50 at LPL:sGPIHBPI complex was 2.7 µM.

Take `CC1CCCN(c2ccc(C(=O)Nc3ccc(F)cc3CC(=O)O)cc2NC(=O)c2nn(CC(F)(F)F)c3ccccc23)C1` (centres unmarked) [Example 73]: the EC50 on LPL:sGPIHBPI complex came to 2.2 µM.
